Results on three molecules are retold here after EP0358154B1, “Novel cyclobutane derivative and process for producing same” (NIPPON KAYAKU KABUSHIKI KAISHA, priority 1988, dated 1990).

Test [1] concerns herpes simplex virus type 2 (HSV-2). Nature of the test: HSV-2 infection in mice, survival (Experimental Example 6). The class given is in vivo, Balb/c mice. As to conditions: for Means survival time / Survivors/Total: once a day for 10 days, monitored 20 days. On the procedure:
Activity of the sample (compound No. 2) against herpes simplex virus type 2 (HSV-2) infection was examined in mice. Balb/c mice (6 week-old, male) were inoculated intraperitoneally (l.p.) with HSV-2 strain 186 at 4.8 x 10^5 PFU/0.2 ml per mouse. The sample was formulated in saline and applied either orally (p.o.) or i.p. at the indicated doses once a day for 10 days, starting 6 hrs after virus infection. The mortality was monitored for 20 days after inoculation. Efficacy of the sample was indicated as extension of survival time and number of survivors. Aciclovir (ACV: commercialized antiviral agent) was used as reference sample.

Test [2] relates to simple Herpes 1 type virus (HSV-I). The test can be described thus: Plaque formation inhibition, HSV-I on Vero cell monolayer (Method 1). In kind it is cell-based. As to conditions: read-out: IC50(µg/ml) HSV-1. On the procedure: (§1) Antiviral activities against simple Herpes 1 type virus (HSV-I) and simple Herpes 2 type virus (HSV-II), both belonging to DNA virus, were examined by the following methods.
(§2) A 6-well multi-plate having a single layer of Vero cell (derived from the kidney cell of African Green-Monkey was infected with 100 to 150 PFU (plaque forming units) of virus. After adsorption at 37°C for one hour, a layer of agar medium (Eagle MEM medium containing 1.5% of agar) containing a varied concentration of sample was superposed thereon, and a cultivation was carried out at 37°C for 48 hours in 5% (v/v) carbon dioxide incubator. The formation of plaque was measured, from which 50% inhibitory value (IC50) was determined.

For test [3], the system named is simple Herpes 2 type virus (HSV-II). The test can be described thus: Plaque formation inhibition, HSV-II on Vero cell monolayer (Method 1). The class given is cell-based. As to conditions: read-out: IC50(µg/ml) HSV-2. On the procedure: as §1, §2
The subject of test [4] is Human Immunodeficiency Virus (HIV). The test can be described thus: Anti-HIV activity in MT-4 cells, virus antigen by fluorescent antibody method (Method 4). The class given is cell-based. As to conditions: Human immunodeficiency virus 1, MT4, 96 h, read-out: IC50(µg/ml) HIV. On the procedure: Antiviral activity against Human Immunodeficiency Virus (HIV) belonging to […] was examined by the following method.
MT-4 cell (about 50,000 cells/ml) was introduced into a 24-well tray, to which was added […] of a solution containing a predetermined quantity of sample compound. Culture was carried out at 37°C for 2 hours in 5% (v/v) carbon dioxide incubator. Then, 10^3 to 10^4 infection units of HIV was added and cultured for 4 days, after which a part of the culture fluid was applied onto a slide glass and immobilized with acetone and development of virus antigen was tested by fluorescent antibody method.
As the primary antibody of fluorescent antibody method, serum of AIDS patient was used. As the secondary antibody, […] was used.

For test [5], the system named is human Cytomegalovirus (HCMV). Nature of the test: Anti-HCMV plaque formation inhibition on human embryonal fibroblast (Method 2). In kind it is cell-based. As to conditions: read-out: IC50(µg/ml) HCMV. The protocol:
Antiviral activity against human Cytomegalovirus (HCMV) belonging to DNA virus was examined by the following method.
Anti-HCMV activity was determined in the following manner. Thus, a 35 mm dish having a single layer of human embryonal fibroblast was infected with 100 PFU of HCMV (A0169 strain). After adsorption for one hour, one layer of a medium (0.5% agarose, 2% fetal calf serum) containing a varied concentration of sample compound was superposed thereon, and cultivation was carried out at 37°C for 10 days in 5% (v/v) carbon dioxide incubator. Then, formation of plaque was measured, from which 50% inhibitory value (IC50) was determined.

In the next test the test system is B hepatitis virus (HBV). The test can be described thus: Anti-HBV activity in HB611 liver cells, HBV DNA by Southern method (Method 3). As to conditions: read-out: IC50(µg/ml) HBV. In kind it is cell-based. On the procedure: Antiviral activity against B hepatitis virus (HBV) belonging to DNA virus was examined by the following method.
According to the procedure of Dulbecco (Proc. Natl. Acad. Sci. USA, 84, 444 (1987)), cultured liver cell strain HB611 producing and releasing active B hepatitis virus was cultured in a modified Eagle medium (GIBCO) at 37°C at a CO2 concentration of 5% in the presence of 10% fetal calf serum, 200 micrograms/ml of G418, 100 µ/ml of Penicillin and 100 µ/ml of Streptomycin. The culture fluid was inoculated onto a 6-well plate at a rate of 5 x 10^4 cells/well (35 mm). One or two days after, 50% confluence was reached, when a predetermined quantity of sample compound was added and cultivation was continued. Thereafter, cultivation was continued for 15 days, while refreshing the medium with a fresh medium containing the same concentrations of the chemicals at intervals of 3 days. Then, the medium was removed, and the cell bodies were treated with 0.5 ml of Lysis buffer (10 mM Tris HCl, pH 7.8/5 mM Na2EDTA, 1% SDS/0.1 mg/ml […]) at 37°C for one hour and dissolved thereinto. The DNA thus obtained was purified by RNase treatment, phenolchloroform treatment and ethanol precipitation.
Then, 5 micrograms of DNA was subjected to Hind III treatment, and DNA pattern was analyzed according to Southern method by using ^32P-labelled B hepatitis virus DNA as a probe.

Test [6] relates to human cervical cancer HeLa S3 cell. Nature of the test: Growth inhibition of HeLa S3 cells, Methylene Blue dyeing (Method 5). In kind it is cell-based. As to conditions: read-out: IC50(µg/ml) HeLaS3. The protocol: Carcinostatic activities on human cervical cancer HeLa S3 cell, mouse leukemia L1210 cell and […] cell were examined by the following methods. HeLa S3 cell was made into a suspension (7.5 x 10^3 cells/ml). The suspension was spread on a 96-well flat plate at a rate of 0.2 ml/well. After culturing it at 37°C for 24 hours in 5% carbon dioxide incubator, 10 microliters of a sample was added and cultivation was carried out for 72 hours. Then, culture fluid was taken out from each well and immobilized with methanol, after which 0.1 ml/well of 0.05% Methylene Blue/10 mM-Tris-HCl (pH 8.5) solution was added and dyeing was carried out at room temperature for 30 minutes. The dyed fluid in each well was withdrawn by means of aspirator and three times washed with pure water. Then, 3% HCl was added at a rate of 0.2 ml/well and the resulting mixture was sealed and allowed to stand at room temperature for about 24 hours, to extract pigment from the cells. Optical absorbance of each well at 660 nm was measured by means of […] Microplate Reader, from which growth inhibitory rate (%) at varied concentration was calculated according to the following equation. […] Growth inhibitory rate (%) = (1 - A1 /A0 ) x 100 [formula] wherein A1 = Absorbance in the treated group, A0 = Absorbance in the control group.

A further test relates to human leukemia P388 cell. Nature of the test: Growth inhibition of P388 cells, cell counting (Method 6). The class given is cell-based. As to conditions: read-out: IC50(µg/ml) P388. The protocol: (§3) Carcinostatic activities on human cervical cancer HeLa S3 cell, mouse leukemia L1210 cell and […] cell were examined by the following methods. Cells of P388 and L1210 were spread onto a 24-well plate. After adding a sample, it was cultured at 37°C for 48 hours in 5% CO2 incubator. After the culture, the number of cells was counted by means of […]. The growth inhibitory rate in the treated group, based on that in the control group, was calculated from the following equation, from which 50% inhibitory concentration (CI50, micrograms/ml) was determined: The results obtained are as shown in Table 3. Growth inhibitory rate (%) = [1-(NT -NO )/NC -NO ] x 100 [formula] wherein NT = Cell number in treated group NO = cell number at the start of culture NC = Cell number in control group Table 3

The subject of test [7] is mouse leukemia L1210 cell. Nature of the test: Growth inhibition of L1210 cells, cell counting (Method 6). In kind it is cell-based. As to conditions: read-out: IC50(µg/ml) L1210. The protocol:
as §3

Each structure is given as a SMILES string. ≈ marks a conversion by molar mass, not a printed value. Read-outs that look alike come from different tables or passages of the source.

With `Nc1nc2c(ncn2COCCO)c(=O)[nH]1` [ACV, Aciclovir, reference compound], the Means survival time in test [1] (i.p., 12.5 mg/kg/day) is 11.1 days; in [1] (i.p., 25 mg/kg/day), 12.7 days; in test [1] (i.p., 50 mg/kg/day), 16.1 days; in test [1] (i.p., 100 mg/kg/day), 5.4 days; in test [1] (p.o., 12.5 mg/kg/day), 9.3 days; in test [1] (p.o., 25 mg/kg/day) it was 11.1 days. The Means survival time in test [1] (p.o., 50 mg/kg/day) amounted to 14.8 days; in test [1] (p.o., 100 mg/kg/day), 14.3 days. Further, the Survivors/Total in test [1] (i.p., 12.5 mg/kg/day) was 1/10; in test [1] (i.p., 25 mg/kg/day) it was 1/10; in test [1] (i.p., 50 mg/kg/day), 5/10; in test [1] (i.p., 100 mg/kg/day), 2/10; in test [1] (p.o., 12.5 mg/kg/day), 0/10; in [1] (p.o., 25 mg/kg/day) it was 0/10. Moreover, the Survivors/Total in test [1] (p.o., 50 mg/kg/day) is reported as 4/10; in test [1] (p.o., 100 mg/kg/day) it was 2/10.

For `Nc1ncnc2c1ncn2[C@@H]1C[C@H](CO)[C@H]1CO` [Compound 1, 9-[(1R,2R,3S)-2,3-Bis(hydroxymethyl)cyclobutane-1-yl] -adenine], the IC50 in test [2] (Human alphaherpesvirus 1, Vero cell, plaque formation, 48 hours) is 7.3 µg/mL (≈ 29.3 µM); in test [3] (Human alphaherpesvirus 2, Vero cell, plaque formation, 48 hours) it was 8.9 µg/mL (≈ 35.7 µM); in test [4] (MT-4 cell, cultured for 4 days, virus antigen) it was 0.03 µg/mL (≈ 0.12 µM); in test [5] (Human betaherpesvirus 5, 240 h, human embryonal fibroblast, A0169 strain, plaque formation, 10 days), 12 µg/mL (≈ 48.1 µM); in the test with B hepatitis virus (HBV) (360 h, HB611 cells, 15 days, HBV DNA), 0.024 µg/mL (≈ 0.0963 µM); in test [6] (HeLa S3, 72 hours, growth inhibition), 14 µg/mL (≈ 56.2 µM). The IC50 in the test on human leukemia P388 cell (P388, 48 hours, growth inhibition) was 0.58 µg/mL (≈ 2.33 µM); in test [7] (L1210, 48 hours, growth inhibition) it was 1.1 µg/mL (≈ 4.41 µM).

As to `Nc1nc2c(ncn2[C@@H]2C[C@H](CO)[C@H]2CO)c(=O)[nH]1` [Compound 2, 9-[(1R,2R,3S)-2,3-Bis(hydroxymethyl)cyclobutane-1-yl] -guanine], the IC50 was 0.03 µg/mL (≈ 0.113 µM) in test [2] (Human alphaherpesvirus 1, Vero, 48 h); 0.13 µg/mL (≈ 0.49 µM) in test [3] (Human alphaherpesvirus 2, Vero, 48 h); 0.3 µg/mL (≈ 1.13 µM) in test [4]; 0.4 µg/mL (≈ 1.51 µM) in test [5] (Human betaherpesvirus 5, Fibroblast, 240 h); 0.86 µg/mL (≈ 3.24 µM) with B hepatitis virus (HBV) (HB611, 360 h); 19 µg/mL (≈ 71.6 µM) in [6] (HeLa S3, 72 h). In addition, the IC50 came to 1.6 µg/mL (≈ 6.03 µM) in the test with human leukemia P388 cell (P388, 48 h) and 8.1 µg/mL (≈ 30.5 µM) in [7] (L1210, 48 h). Moreover, the Means survival time in [1] (i.p., 1.25 mg/kg/day) is 19.8 days; in [1] (i.p., 2.5 mg/kg/day), 18.9 days; in test [1] (i.p., 5 mg/kg/day), 20.0 days; in [1] (i.p., 10 mg/kg/day), 20.0 days; in [1] (i.p., 20 mg/kg/day), 20.0 days; in [1] (p.o., 1.25 mg/kg/day), 12.4 days. Besides, the Means survival time came out at 14.7 days in test [1] (p.o., 2.5 mg/kg/day); 18.9 days in test [1] (p.o., 5 mg/kg/day); 19.8 days in test [1] (p.o., 10 mg/kg/day); 19.7 days in test [1] (p.o., 20 mg/kg/day). Further, the Survivors/Total is recorded as 7/10 in test [1] (i.p., 1.25 mg/kg/day); 9/10 in test [1] (i.p., 2.5 mg/kg/day); 10/10 in test [1] (i.p., 5 mg/kg/day); 10/10 in test [1] (i.p., 10 mg/kg/day); 10/10 in test [1] (i.p., 20 mg/kg/day); 2/10 in test [1] (p.o., 1.25 mg/kg/day). In addition, the Survivors/Total in test [1] (p.o., 2.5 mg/kg/day) was 4/10; in test [1] (p.o., 5 mg/kg/day), 8/10; in test [1] (p.o., 10 mg/kg/day) it was 9/10; in [1] (p.o., 20 mg/kg/day), 9/10. For the same molecule, in test [1] (irrespective of administration routes (i.p., p.o.), 1.25 to 20 mg/kg per day), the “reducing mortality rate of mice infected with HSV-2” value was “highly effective”.
